One compound from patent publication US9181234B2, “Antibacterial compounds” (priority 2010, dated 2015) can be followed below.

In brackets after ≈: the same amount, converted by molar mass. A value given as a limit tells only on which side of the number the result lay.

The target in assay [1] is T1, Gyrase enzyme (A2B2 complex from Staphylococcus aureus) (UniProt P0A0K8).
T1 construct: 2 mU/μl Gyrase enzyme (A2B2 complex from Staphylococcus aureus); Alternatively
The assay is described as follows: Gyrase ATPase assay (S. aureus enzyme). Conditions: read-out: Gyrase ATPase activity (IC50); enzyme source (S. aureus or E. coli) not given; 1 mM ATP, 30° C., 60 minutes. In kind it is biochemical. The method, then: On-Target Enzyme Assay: Determination of Gyrase ATPase Activity
Gyrase converts ATP into ADP and inorganic phosphate. The released phosphate can be detected by the addition of malachite green solution and measured by monitoring the increase in absorbance at 600 nm. The ATPase assay is carried out in a buffer containing 2 mU/μl Gyrase enzyme (A2B2 complex from Staphylococcus aureus), 0.08 mg/ml double-stranded DNA, 8 mM HEPES.KOH pH 7.6, 100 mM K glutamate, 2 mM Mg acetate, 2 mM DTT, 0.01 mg/ml BSA, and 5% DMSO solution containing the inhibitor. Alternatively, the ATPase assay is carried out in a buffer containing 4.8 μg/mL Gyrase enzyme (A2B2 complex from Escherichia coli), 0.08 μg/mL ssDNA, 35 mM Tris pH 7.5, 24 mM KCl, 2 mM MgCl2, 6.5% Glycerol, 2 mM DTT, 1.8 mM Spermidine, 0.5 mg/mL BSA and 5% DMSO solution containing the inhibitor. The reaction is started by adding ATP to a final concentration of 1 mM and allowed to incubate at 30° C. for 60 minutes. The reaction is stopped by adding […] of malachite green solution (0.034% malachite green, 10 mM ammonium molybdate, 1 M HCl, 3.4% ethanol, 0.01% tween 20). Colour is allowed to develop for 5 minutes and the absorbance at 600 nm is measured spectrophotometrically. The IC50 values are determined from the absorbance readings using no compound and no enzyme controls.

Assay [2] concerns Staphylococcus aureus (Isolate ID ATCC 29213). The assay can be described thus: Antibacterial activity, MIC, S. aureus. As to conditions: Staphylococcus aureus, ATCC29213, Gram positive strain; broth microdilution or agar dilution. In kind it is cell-based. The method in brief:
(§1)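 Compounds are serially diluted in broth or agar as CLSI specifies for aerobically growing bacteria, and the MIC is then recorded for each strain.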

In assay [3] the test system is Streptococcus pyogenes (Isolate ID ATCC 51339). The assay is described as follows: Antibacterial activity, MIC, S. pyogenes. The class given is cell-based. As to conditions: Streptococcus pyogenes, ATCC51339, Gram positive strain; broth microdilution or agar dilution. A digest of the protocol: as §1
In assay [4] the test system is Haemophilus influenzae (Isolate ID ATCC 49247). The assay is described as follows: Antibacterial activity, MIC, H. influenzae. Conditions: Haemophilus influenzae, ATCC49247; Gram negative strain; broth microdilution or agar dilution. The class given is cell-based. The method in brief:
as §1

T1 sequence (P0A0K8 whole entry, one chain of several): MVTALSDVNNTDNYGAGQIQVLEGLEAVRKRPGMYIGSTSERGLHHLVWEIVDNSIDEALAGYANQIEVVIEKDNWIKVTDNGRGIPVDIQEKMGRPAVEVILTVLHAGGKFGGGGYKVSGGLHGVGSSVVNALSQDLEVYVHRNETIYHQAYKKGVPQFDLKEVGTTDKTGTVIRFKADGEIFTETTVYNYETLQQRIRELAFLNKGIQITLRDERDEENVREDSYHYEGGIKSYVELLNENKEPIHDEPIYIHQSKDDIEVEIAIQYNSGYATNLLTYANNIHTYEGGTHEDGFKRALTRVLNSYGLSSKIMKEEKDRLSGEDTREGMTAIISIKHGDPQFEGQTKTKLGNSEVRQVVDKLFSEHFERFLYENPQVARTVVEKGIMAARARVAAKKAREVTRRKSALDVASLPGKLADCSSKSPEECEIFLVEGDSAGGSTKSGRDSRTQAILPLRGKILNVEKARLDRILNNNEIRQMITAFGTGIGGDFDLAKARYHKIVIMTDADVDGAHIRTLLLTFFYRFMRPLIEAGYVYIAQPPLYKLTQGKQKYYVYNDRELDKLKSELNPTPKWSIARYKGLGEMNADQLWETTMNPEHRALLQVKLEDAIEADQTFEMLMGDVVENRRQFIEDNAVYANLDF

Turning to `CCNC(=O)Nc1nc2cc(-c3nsc(N4CCC(CC)(C(=O)O)CC4)n3)cc(-c3ccccn3)c2s1` [Compound 232, 4-ethyl-1-(3-{2-[(ethylcarbamoyl)amino]-7-(pyridin-2-yl)-1,3-benzothiazol-5-yl}-1,2,4-thiadiazol-5-yl)piperidine-4-carboxylic acid], in assay [1], the IC50 is 930 nM. Further, the results for the MIC in assay [2], in assay [3] and in assay [4] were 1 to 16 µg/mL (≈ 1.86 to 29.8 µM), over 16 µg/mL and over 16 µg/mL, respectively.
